Assay results from PMC6268972, “Antiproliferative, Antimicrobial and Apoptosis Inducing Effects of Compounds Isolated from Inula viscosa” (Molecules, 2012).
Converted amounts (≈) assume the structure as drawn. Counter-ions that a name gives are not always drawn.

Columns and labels:
Vero cells = experiment: MTT antiproliferative activity assay, Vero; format: cell-based, African green monkey; conditions: Chlorocebus sabaeus, Vero; MTT, 48 h treatment, average of three replicates; read-out: IC50 Vero
Method: (§1) Hep-2 (larynx carcinoma, ATCC: CCL-23), MCF-7 (breast epithelial adenocarcinoma, ATCC: HTB-22), and Vero (African green monkey kidney, ATCC: CCL-81) cell lines were kindly provided by Dr. Mona Hassuneh (Department of Biological Sciences, University of Jordan). Cells were grown in Minimum Essential Medium Eagle (Gibco, Paisley UK) supplemented with 10% heat inactivated fetal bovine serum (Gibco, Paisley UK), 29 μg/mL L-glutamine, and 40 μg/mL gentamicin. Cells were incubated in a humidified atmosphere of 5% CO2 at 37 °C.
(§2) The antiproliferative activity of Inula viscosa compounds was measured using the MTT (3-(4,5-dimethylthiazol-2-yl)-2,5-diphenyltetrazolium bromide) assay (Promega, Madison, WI, USA). The assay detects the reduction of MTT by mitochondrial dehydrogenase to blue formazan product, which reflects the normal function of mitochondria and cell viability. Exponentially growing cells were washed and seeded at 17,000 cells/well for Hep-2 cell line and 11,000 cells/ well for MCF-7 cell line (in 200 μL of growth medium) in 96 well microplates (Nunc, Roskilde, Denmark). After 24 h incubation, a partial monolayer was formed then the media was removed and 200 μL of the medium containing the compound (initially dissolved in DMSO) were added and re-incubated for 48 h. Then 100 μL of the medium were aspirated and 15 μL of the MTT solution were added to the remaining medium (100 μL) in each well. After 4 h contact with the MTT solution, blue crystals were formed. One hundred μL of the stop solution were added and incubated further for 1 h.
(§3) Reduced MTT was assayed at 550 nm using a microplate reader (Biotek, Winooski, VT, USA). Control groups received the same amount of DMSO (0.1%).Untreated cells were used as a negative control while, cells treated with vincristine sulfate were used as a positive control. Eight concentrations (150, 100, 50, 20, 10, 5, 2, and 1 μg/mL) were prepared from each compound and tested against the three cell lines. IC50 values were calculated as the concentrations that show 50% inhibition of proliferation on any tested cell line. Stock solutions of the compounds were dissolved in (DMSO) then diluted with the medium and sterilized using 0.2 μm membrane filters. The toxicity of DMSO was determined and the final dilution of compounds used for treating the cells contained not more than 0.1% (non toxic concentration) DMSO. IC50 values were reported as the average of three replicates. The antiproliferative effect of the tested compounds was determined by comparing the optical density of the treated cells against the optical density of the control (cells treated with media containing 0.1% DMSO).

MCF-7 cells [1] = experiment: TUNEL colorimetric apoptosis assay; format: cell-based, human; conditions: 15 µg/mL, 28 h, compared with untreated cells
Method: Apoptosis was detected using terminal deoxynucleotidyl transferase (TdT) mediated-16-deoxyuridine triphosphate (dUTP) Nick-End Labelling (TUNEL) system (Promega, Madison, WI, USA). MCF-7 cells cultured in 24 well plates were treated with 15 µg/mL of either 3-O-methylquercetin or 3,3′-di-O-methylquercetin for 28 h. The assay was conducted according to the manufacturer's instructions. Briefly, treated cells were fixed using 10% formalin followed by washing with phosphate buffer saline (PBS). Cells were then permeabilized using 0.2% triton X-100. Biotinylated dUTP in rTdT reaction mixture was added to label the fragmented DNA at 37 °C for one hour, followed by blocking endogenous peroxidases using 0.3% hydrogen peroxide. Streptavidin HRP (1:500 in PBS) was added and incubated at room temperature for 30 min. Finally, hydrogen peroxide and chromagen diaminobenzidine were used to visualize nuclei with fragmented DNAs under the light microscope (Novex, Arnhem, Holland). Cells treated with 40 nM vincristine sulfate were used as a positive control while untreated cells were used as a negative control.

Candida albicans = experiment: Microtiter plate dilution MIC, C. albicans; format: cell-based; conditions: Candida albicans, ATCC90028; ATCC 90028, malt extract broth, 24 h, 100% inhibition; read-out: Minimum inhibitory concentration (MIC) C.a
Method: (§4) The microbial strains used in this study were Escherichia coli (ATCC 10798), Salmonella typhimurium (ATCC14028), Methicillin resistant Staphylococcus aureus (MRSA, Clinical isolate), Bacillus cereus (Toxigenic strain TS), and Candida albicans (ATCC 90028). Bacterial strains were stocked onto nutrient agar slant at 4 °C, and Candida albicans was stocked onto malt agar slant at 4 °C.
(§5) The microtiter plate dilution method was used to determine the MIC (minimum inhibitory concentration) of compounds under study. Sterile 96-well microplates (Nunc) were used for the assay. Stock compounds were dissolved in DMSO so that the final concentrations in micro wells were less than 1% DMSO and solvent controls were run at these concentrations. Positive controls of penicillin G and tetracycline (Oxoid, Hampshire, UK) were prepared at the following concentrations 2, 4, 8, 16, 31, 62.5, 125, and 250 μg/mL. 1% DMSO was used as a solvent control. Compounds were diluted to twice the desired initial test concentration (250 µg/mL) with Muller Hinton broth (MHB) (Oxoid). All wells, except the first were filled with MHB (50 μL). Compounds (100 μL) were added to the first well and serial two-fold dilutions were made down to the desired minimum concentration (2 μg/mL). An over-night culture of bacteria suspended in MHB was adjusted to turbidity equal to 0.5 McFarland standard. The plates were inoculated with bacterial suspension (50 μL/well) and incubated at 37 °C for 24 h. Then the turbidity was measured using micro-plate reader (Biotek) at 620 nm wavelength. The same procedure was used to determine the antifungal activity of compounds against Candida albicans. The medium used was malt extract broth. The yeast cells were suspended in 0.85% saline, with an optical density equivalent to 0.5 McFarland standard, and diluted 1:100 in malt extract broth to obtain the working concentration. After 24 h incubation with each compound, the turbidity was measured at 530 nm wavelength using a spectrophotometer (Biotek). Percentage inhibition for tested microorganisms was calculated using the following formula:
(§6) MIC was determined as the lowest concentration of the compound that causes complete inhibition (100%) of each microorganism.

MCF-7 cells [2] = experiment: MTT antiproliferative activity assay, MCF-7; format: cell-based, human; conditions: Homo sapiens, MCF7; MTT, 48 h treatment, average of three replicates; read-out: IC50 MCF-7
Method: as §1, §2, §3

Hep-2 cells = experiment: MTT antiproliferative activity assay, Hep-2; format: cell-based; conditions: Homo sapiens, HEp-2; MTT, 48 h treatment, average of three replicates; read-out: IC50 Hep-2
Method: as §1, §2, §3

MCF-7 cells [3] = experiment: Scanning electron microscopy of MCF-7 cells; format: cell-based, human; conditions: 15 µg/mL compound (vincristin sulfate 40 nM), 48 h
Method: MCF-7 cells were cultured in complete DMEM containing either 15 µg/mL of 3-O-methylquercetin or 3,3′-di-O-methylquercetin and incubated for 48 h in humidified CO2 incubator. Negative control cells were incubated with complete DMEM and positive control cells received complete DMEM containing 40 nM vincristin sulfate. Treated cells were fixed with 3% glutaraldehyde for 1.5 h followed by osmium tetroxide (2% in PBS) for 1 h. After fixation, cells were washed in PBS and sequentially dehydrated using 30%, 70%, and 100% ethanol. Fixed cells were attached to a metal stubs and sputter coated with platinum by using Emitech K550X coating unit (Qourum Technology, West Sussex, UK). The coated specimens were viewed using Inspect F50/FEG scanning electron microscope (FEI, Eindhoven, The Netherlands) at accelerating voltage of 2–5 kV. Bacillus cereus cells treated with 3,3′-di-O-methylquercetin for 24 h were collected by centrifugation and washed with sodium phosphate buffer. Following that, the samples were fixed in 2.5% glutaraldehyde in 0.1 M phosphate buffer, pH 7.3, at 4 °C overnight, and postfixed in 1% osmium tetroxide in the phosphate buffer for 1 h at room temperature. Bacterial cells were dehydrated with sequential ethanol concentrations (30–100%) and coated for the observations under scanning electron microscope.

Bacillus cereus [4] = experiment: Microtiter plate dilution MIC, B. cereus; format: cell-based; conditions: Bacillus cereus; Toxigenic strain TS, 24 h, 100% inhibition; read-out: Minimum inhibitory concentration (MIC) B.c
Method: as §4, §5, §6

Salmonella typhimurium = experiment: Microtiter plate dilution MIC, S. typhimurium; format: cell-based; conditions: Salmonella enterica, ATCC 14028 / TYPHIMURIUM; ATCC14028, 24 h, 100% inhibition; read-out: Minimum inhibitory concentration (MIC) S.t
Method: as §4, §5, §6

Escherichia coli = experiment: Microtiter plate dilution MIC, E. coli; format: cell-based; conditions: Escherichia coli, ATCC10798; ATCC 10798, 24 h, 100% inhibition; read-out: Minimum inhibitory concentration (MIC) E.c
Method: as §4, §5, §6

[5] = tested on: Methicillin resistant Staphylococcus aureus (MRSA); experiment: Microtiter plate dilution MIC, MRSA; format: cell-based; conditions: Staphylococcus aureus, MRSA; clinical isolate, 24 h, 100% inhibition; read-out: Minimum inhibitory concentration (MIC) MRSA
Method: as §4, §5, §6

Bacillus cereus [6] = conditions: cited from earlier work; for MIC against Bacillus cereus: previous studies ref 31

Compound | IC50 (Vero cells) [µg/mL] | IC50 (MCF-7 cells [2]) [µg/mL] | IC50 (Hep-2 cells) [µg/mL] | Cytomorphological alterations (scanning electron microscopy) (MCF-7 cells [3]) | MIC against Bacillus cereus (Bacillus cereus [6]) [µg/mL] | also measured
COc1c(-c2ccc(O)c(O)c2)oc2cc(O)cc(O)c2c1=O [3-O-Methylquercetin] | > 150 | 11.2 ± 1.93 (≈ 35.5 µM) | 26.1 ± 2.18 (≈ 82.6 µM) | cell shrinkage, membrane blebbing, loss of contact with neighboring cells, and formation of apoptotic bodies | – | Apoptosis induction (DNA fragmentation, TUNEL) (MCF-7 cells [1]): increase in the number of apoptotic cells with fragmented DNA; MIC (Candida albicans): 250 µg/mL (≈ 790 µM); MIC (Bacillus cereus [4]): 125 µg/mL (≈ 395 µM); MIC (Salmonella typhimurium): 125 µg/mL (≈ 395 µM); MIC (Escherichia coli): > 250 µg/mL; MIC [5]: > 250 µg/mL
CC[C@]1(O)C[C@H]2CN(CCc3c([nH]c4ccccc34)[C@@](C(=O)OC)(c3cc4c(cc3OC)N(C=O)[C@H]3[C@@](O)(C(=O)OC)[C@H](OC(C)=O)[C@]5(CC)C=CCN6CC[C@]43[C@@H]65)C2)C1 [Vincristine sulfate, reference compound] | > 90 | 10 ± 1.34 | > 90 | morphological changes similar to those observed in cells treated with either 3-O-methylquercetin or 3,3′-di-O-methylquercetin | – | –
O=c1c(O[C@H]2OC[C@@H](O)[C@@H](O)[C@@H]2O)c(-c2ccc(O)c(O)c2)oc2cc(O)cc(O)c12 [quercetin-3-O-arabinoside] | – | – | – | – | 350 (≈ 806 µM) | –
O=c1c(O)c(-c2ccc(O)c(O)c2)oc2cc(O)cc(O)c12 [quercetin] | – | – | – | – | 350 (≈ 1160 µM) | –
Quercetin-3-O-glycoside | – | – | – | – | – | Inhibition of Bacillus cereus (concentration) (Bacillus cereus [6]; previous studies ref 32): 50 µg/mL
